Measured values: patent US4740233A, “Substituted 1,2,4-triazolo[1,5-a]-pyrimidine-2-sulfonamides and compositions and methods of controlling undesired vegetation and suppressing the nitrification of ammonium nitrogen in soil” (The Dow Chemical Company, priority 1986, dated 1988)

Legend:
[1] = tested on: sugar beet; experiment: Preemergent control of plant species; type: in vivo, Beta saccharifera; details: Beta vulgaris, pre-emergence, 336 h; 0.25 lb/acre; read-out: percent preemergent control
Procedure, shortened: (§1)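 Preemergent application of aqueous emulsions at rates given in the table, uniformly over seeded greenhouse soil. Untreated (water) beds as comparison; rating after 2 weeks as reduction in growth.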

[2] = tested on: cotton; experiment: Preemergent control of plant species; type: in vivo, Gossypium spp.; details: Gossypium hirsutum, pre-emergence, 336 h; 0.25 lb/acre; read-out: percent preemergent control
Procedure, shortened: as §1

[3] = tested on: rice; experiment: Preemergent control of plant species; type: in vivo, Oryza sativa; details: Oryza sativa, pre-emergence, 336 h; 0.25 lb/acre; read-out: percent preemergent control
Procedure, shortened: as §1

[4] = tested on: velvetleaf; experiment: Preemergent control of plant species; type: in vivo, Abutilon theophrasti; details: Abutilon theophrasti, pre-emergence, 336 h; 0.25 lb/acre; read-out: percent preemergent control
Procedure, shortened: as §1

[5] = tested on: sorghum; experiment: Preemergent control of plant species; type: in vivo, Sorghum vulgare; details: Sorghum, pre-emergence, 336 h; 0.25 lb/acre; read-out: percent preemergent control
Procedure, shortened: as §1

[6] = tested on: corn; experiment: Preemergent control of plant species; type: in vivo, Zea mays; details: Zea mays, pre-emergence, 336 h; 0.25 lb/acre; read-out: percent preemergent control
Procedure, shortened: as §1

[7] = tested on: pigweed; experiment: Preemergent control of plant species; type: in vivo, Amaranthus spp.; details: Amaranthus retroflexus, pre-emergence, 336 h; 0.25 lb/acre; read-out: percent preemergent control
Procedure: (§2) The seeds of various species of plants were planted in beds of good agricultural soil in a greenhouse. A number of compositions of the present invention, generally in the nature of an aqueous emulsion, were applied at rates listed in the table so as to deposit a predetermined amount of active ingredients uniformly throughout the surface of the bed. Another seed bed was treated only with water to serve as a control. After treatment the seed beds were maintained for two weeks under greenhouse conditions conducive for good plant growth and watered as necessary. Control refers to the reduction in growth compared to the observed results of the same untreated species.

[8] = tested on: wheat; experiment: Preemergent control of plant species; type: in vivo, Triticum aestivum; details: Triticum aestivum, pre-emergence, 336 h; 0.25 lb/acre; read-out: percent preemergent control
Procedure, shortened: as §1

[9] = tested on: soybean; experiment: Preemergent control of plant species; type: in vivo, Glycine max.; details: Glycine max, pre-emergence, 336 h; 0.25 lb/acre; read-out: percent preemergent control
Procedure, shortened: as §1

[10] = tested on: crabgrass; experiment: Preemergent control of plant species; type: in vivo, Digitaria spp.; details: Digitaria sanguinalis, pre-emergence, 336 h; 0.25 lb/acre; read-out: percent preemergent control
Procedure: as §2

[11] = tested on: yellow foxtail; experiment: Preemergent control of plant species; type: in vivo, Setaria lutescens; details: Setaria, pre-emergence, 336 h; 0.25 lb/acre; read-out: percent preemergent control
Procedure, shortened: as §1

[12] = tested on: rape; experiment: Preemergent control of plant species; type: in vivo, Brassica napus; details: Brassica napus, pre-emergence, 336 h; 0.25 lb/acre; read-out: percent preemergent control
Procedure, shortened: as §1

[13] = tested on: nitrification of ammonium nitrogen; experiment: Suppression of nitrification of ammonium nitrogen in soil; details: 27° C.
Procedure, shortened: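 Soil (20 g) moistened to its 1/3 bar tension value, mixed with test chemical and incubated sealed for two weeks at 27° C. Nitrate extracted with ammonium sulfate solution and measured by nitrate-specific ion electrode; value given as % NH4-N remaining.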

[14] = tested on: jimsonweed; experiment: Preemergent control of plant species; type: in vivo, Datura stramonium; details: Datura stramonium, pre-emergence, 336 h; 0.25 lb/acre; read-out: percent preemergent control
Procedure, shortened: as §1

[15] = tested on: johnson grass; experiment: Preemergent control of plant species; type: in vivo, Sorghum halepense; details: Sorghum halepense, pre-emergence, 336 h; 0.25 lb/acre; read-out: percent preemergent control
Procedure, shortened: as §1

[16] = tested on: wild oats; experiment: Preemergent control of plant species; type: in vivo; details: Avena fatua, pre-emergence, 336 h; 0.25 lb/acre; read-out: percent preemergent control
Procedure, shortened: as §1

[17] = tested on: annual morning glory; experiment: Preemergent control of plant species; type: in vivo, Ipomoea spp.; details: Ipomoea, pre-emergence, 336 h; 0.25 lb/acre; read-out: percent preemergent control
Procedure, shortened: as §1

[18] = tested on: barnyardgrass; experiment: Preemergent control of plant species; type: in vivo, Echinochloa crusgalli; details: Echinochloa crus-galli, pre-emergence, 336 h; 0.25 lb/acre; read-out: percent preemergent control
Procedure, shortened: as §1

[19] = tested on: yellow nutsedge; experiment: Preemergent control of plant species; type: in vivo, Cyperus esculentus; details: Cyperus, pre-emergence, 336 h; 0.25 lb/acre; read-out: percent preemergent control
Procedure, shortened: as §1

Row | Compound | plant injury at 280.212 g/ha [1] [%] | plant injury at 280.212 g/ha [2] [%] | plant injury at 280.212 g/ha [3] [%] | pest or weed control at 280.212 g/ha [4] [%] | plant injury at 280.212 g/ha [5] [%] | plant injury at 280.212 g/ha [6] [%] | pest or weed control at 280.212 g/ha [7] [%] | plant injury at 280.212 g/ha [8] [%] | plant injury at 280.212 g/ha [9] [%] | pest or weed control at 280.212 g/ha [10] [%] | pest or weed control at 280.212 g/ha [11] [%] | plant injury at 280.212 g/ha [12] [%] | % NH4-N Remaining After 2 Weeks Incubation ([13]; 0.06 ppm) [%] | % NH4-N Remaining After 2 Weeks Incubation ([13]; 0.25 ppm) [%] | % NH4-N Remaining After 2 Weeks Incubation ([13]; 1 ppm) [%] | % NH4-N Remaining After 2 Weeks Incubation ([13]; 4 ppm) [%] | pest or weed control at 280.212 g/ha [14] [%] | pest or weed control at 280.212 g/ha [15] [%] | pest or weed control at 280.212 g/ha [16] [%] | pest or weed control at 280.212 g/ha [17] [%] | further results
1 | COCc1cccc(Cl)c1NS(=O)(=O)c1nc2nc(C)cc(C)n2n1 [Compound 91] | 100 | 100 | 50 | 70 | 0 | 30 | 100 | 20 | 100 | 40 | 100 | 100 | 15 | 46 | 55 | 80 | 40 | 0 | 70 |  | 
2 | COc1cccc(C(F)(F)F)c1NS(=O)(=O)c1nc2nc(C)cc(C)n2n1 [Compound 104] | 100 | 100 | 100 | 100 | 100 | 100 |  | 100 | 100 | 100 | 100 | 100 |  |  |  |  | 100 | 100 | 100 | 100 | pest or weed control at 280.212 g/ha [18]: 100%; pest or weed control at 280.212 g/ha [19]: 100%
3 | Cc1nc2nc(S(=O)(=O)Nc3ccccc3C(F)(F)F)nn2c(C)c1C [Compound 112] | 99 | 80 | 25 | 20 | 20 | 50 | 90 | 0 | 0 | 97 | 0 | 85 | 31 | 53 | 65 | 72 | 0 | 30 | 90 | 80 | pest or weed control at 280.212 g/ha [18]: 0%; pest or weed control at 280.212 g/ha [19]: 90%
4 | Cc1cccc(Cl)c1NS(=O)(=O)c1nc2nc(C)c(C)c(C)n2n1 [Compound 113] | 100 | 30 | 40 | 60 | 0 | 0 | 100 | 0 | 0 | 90 | 50 | 90 | 16 | 39 | 69 | 86 | 0 | 50 | 0 | 0 | pest or weed control at 280.212 g/ha [18]: 20%; pest or weed control at 280.212 g/ha [19]: 50%
